Results reported in ChEMBL document CHEMBL3885861, “Open TG-GATES”.

Species: Rattus norvegicus
Test: Open TG-GATES - Regimen: Daily Repeat
Assay type: toxicity, organism-based, Sprague-Dawley
Design: regimen Daily Repeat, gender Male, age 6 weeks
Conditions: in vivo, po, 5 mg/kg, route gavage, dose level Low; for APTT / Bas / Eos / Fbg / Hb / Ht / Lym / MCH / MCHC / MCV / Mono / Neu / PT / Plat / RBC / Ret / WBC: tissue Blood; for KIDNEY_L / KIDNEY_R / KIDNEY_TOTAL: tissue Kidney; for LIVER: tissue Liver; for A/G / ALP / ALT / AST / BUN / CRE / Ca / Cl / DBIL / GLC / IP / K / LDH / Na / PL / RALB / TBIL / TC / TG / TP / gamma-GTP: tissue Plasma

CC1=C(CC(=O)O)c2cc(F)ccc2/C1=C\c1ccc([S+](C)[O-])cc1 (configuration not stated)
TERMINAL_BW (72 h, time 3 day): 233.7 g
APTT (72 h, time 3 day): 15.8 s
Bas (72 h, time 3 day): 0%
Eos (72 h, time 3 day): 1%
Fbg (72 h, time 3 day): 306.2 mg/dL
Hb (72 h, time 3 day): 14.4 g/dL
Ht (72 h, time 3 day): 42.7%
Lym (72 h, time 3 day): 72.4%
MCH (72 h, time 3 day): 21.2 pg
MCHC (72 h, time 3 day): 33.8%
MCV (72 h, time 3 day): 62.7 fL
Mono (72 h, time 3 day): 2.4%
Neu (72 h, time 3 day): 23.8%
PT (72 h, time 3 day): 13.7 s
Plat (72 h, time 3 day): 128.2 x10_4/uL
RBC (72 h, time 3 day): 681.2 x10_4/ul
Ret (72 h, time 3 day): 6.8%
WBC (72 h, time 3 day): 91.3 x10_2/uL
KIDNEY_L (72 h, time 3 day): 1 g
KIDNEY_R (72 h, time 3 day): 1 g
KIDNEY_TOTAL (72 h, time 3 day): 1.9 g
LIVER (72 h, time 3 day): 11.2 g
A/G (72 h, time 3 day): 0.9
ALP (72 h, time 3 day): 1483.6 IU/L
ALT (72 h, time 3 day): 40.6 IU/L
AST (72 h, time 3 day): 67.8 IU/L
BUN (72 h, time 3 day): 15.2 mg/dL
CRE (72 h, time 3 day): 0.2 mg/dL
Ca (72 h, time 3 day): 11.1 mg/dL
Cl (72 h, time 3 day): 106.2 meq/L
DBIL (72 h, time 3 day): 0.01 mg/dL
GLC (72 h, time 3 day): 177 mg/dL
IP (72 h, time 3 day): 7.3 mg/dL
K (72 h, time 3 day): 4.2 meq/L
LDH (72 h, time 3 day): 76 IU/L
Na (72 h, time 3 day): 142 meq/L
PL (72 h, time 3 day): 168.2 mg/dL
RALB (72 h, time 3 day): 2.7 g/dL
TBIL (72 h, time 3 day): 0.018 mg/dL
TC (72 h, time 3 day): 88 mg/dL
TG (72 h, time 3 day): 121.8 mg/dL
TP (72 h, time 3 day): 5.6 g/dL
gamma-GTP (72 h, time 3 day): 1.2 IU/L
TERMINAL_BW ([…], time 7 day): 272.8 g
TERMINAL_BW ([…], time 14 day): 329.4 g
TERMINAL_BW ([…], time 28 day): 403.3 g
APTT ([…], time 7 day): 18.1 s
Bas ([…], time 7 day): 0%
Eos ([…], time 7 day): 1%
Fbg ([…], time 7 day): 300.2 mg/dL
Hb ([…], time 7 day): 14.2 g/dL
Ht ([…], time 7 day): 41.6%
Lym ([…], time 7 day): 79%
MCH ([…], time 7 day): 21.3 pg
MCHC ([…], time 7 day): 34.2%
MCV ([…], time 7 day): 62.3 fL
Mono ([…], time 7 day): 2%
Neu ([…], time 7 day): 17.4%
PT ([…], time 7 day): 13.7 s
Plat ([…], time 7 day): 134 x10_4/uL
RBC ([…], time 7 day): 667.8 x10_4/ul
Ret ([…], time 7 day): 5.8%
WBC ([…], time 7 day): 93.6 x10_2/uL
APTT ([…], time 14 day): 17.3 s
Bas ([…], time 14 day): 0%
Eos ([…], time 14 day): 1%
Fbg ([…], time 14 day): 321 mg/dL
Hb ([…], time 14 day): 15.5 g/dL
Ht ([…], time 14 day): 45.7%
Lym ([…], time 14 day): 77.2%
MCH ([…], time 14 day): 21.1 pg
MCHC ([…], time 14 day): 34%
MCV ([…], time 14 day): 62.1 fL
Mono ([…], time 14 day): 2.2%
Neu ([…], time 14 day): 18.6%
PT ([…], time 14 day): 13.8 s
Plat ([…], time 14 day): 123.9 x10_4/uL
RBC ([…], time 14 day): 737.2 x10_4/ul
Ret ([…], time 14 day): 4%
WBC ([…], time 14 day): 93.7 x10_2/uL
APTT ([…], time 28 day): 17.8 s
Bas ([…], time 28 day): 0%
Eos ([…], time 28 day): 1.4%
Fbg ([…], time 28 day): 292 mg/dL
Hb ([…], time 28 day): 15.4 g/dL
Ht ([…], time 28 day): 46.5%
Lym ([…], time 28 day): 79%
MCH ([…], time 28 day): 18.6 pg
MCHC ([…], time 28 day): 33.1%
MCV ([…], time 28 day): 56.4 fL
Mono ([…], time 28 day): 2%
Neu ([…], time 28 day): 17.4%
PT ([…], time 28 day): 12.8 s
Plat ([…], time 28 day): 112.3 x10_4/uL
RBC ([…], time 28 day): 826.8 x10_4/ul
Ret ([…], time 28 day): 2.6%
WBC ([…], time 28 day): 97.8 x10_2/uL
KIDNEY_L ([…], time 7 day): 1.2 g
KIDNEY_R ([…], time 7 day): 1.2 g
KIDNEY_TOTAL ([…], time 7 day): 2.3 g
KIDNEY_L ([…], time 14 day): 1.3 g
KIDNEY_R ([…], time 14 day): 1.3 g
KIDNEY_TOTAL ([…], time 14 day): 2.5 g
KIDNEY_L ([…], time 28 day): 1.4 g
KIDNEY_R ([…], time 28 day): 1.4 g
KIDNEY_TOTAL ([…], time 28 day): 2.8 g
LIVER ([…], time 7 day): 13.1 g
LIVER ([…], time 14 day): 14.3 g
LIVER ([…], time 28 day): 16.6 g
A/G ([…], time 7 day): 0.9
ALP ([…], time 7 day): 1462.4 IU/L
ALT ([…], time 7 day): 37.6 IU/L
AST ([…], time 7 day): 67.4 IU/L
BUN ([…], time 7 day): 17.6 mg/dL
CRE ([…], time 7 day): 0.2 mg/dL
Ca ([…], time 7 day): 11 mg/dL
Cl ([…], time 7 day): 104.2 meq/L
DBIL ([…], time 7 day): 0.012 mg/dL
GLC ([…], time 7 day): 183.6 mg/dL
IP ([…], time 7 day): 6.4 mg/dL
K ([…], time 7 day): 4.2 meq/L
LDH ([…], time 7 day): 98 IU/L
Na ([…], time 7 day): 140.6 meq/L
PL ([…], time 7 day): 156.6 mg/dL
RALB ([…], time 7 day): 2.7 g/dL
TBIL ([…], time 7 day): 0.022 mg/dL
TC ([…], time 7 day): 78.8 mg/dL
TG ([…], time 7 day): 122.4 mg/dL
TP ([…], time 7 day): 5.8 g/dL
gamma-GTP ([…], time 7 day): 1 IU/L
A/G ([…], time 14 day): 0.9
ALP ([…], time 14 day): 1448 IU/L
ALT ([…], time 14 day): 40 IU/L
AST ([…], time 14 day): 65.6 IU/L
BUN ([…], time 14 day): 16.4 mg/dL
CRE ([…], time 14 day): 0.2 mg/dL
Ca ([…], time 14 day): 11 mg/dL
Cl ([…], time 14 day): 105.4 meq/L
DBIL ([…], time 14 day): 0.01 mg/dL
GLC ([…], time 14 day): 177.2 mg/dL
IP ([…], time 14 day): 6.2 mg/dL
K ([…], time 14 day): 3.6 meq/L
LDH ([…], time 14 day): 62.4 IU/L
Na ([…], time 14 day): 143 meq/L
PL ([…], time 14 day): 163 mg/dL
RALB ([…], time 14 day): 2.8 g/dL
TBIL ([…], time 14 day): 0.044 mg/dL
TC ([…], time 14 day): 74.6 mg/dL
TG ([…], time 14 day): 153.8 mg/dL
TP ([…], time 14 day): 6 g/dL
gamma-GTP ([…], time 14 day): 1 IU/L
A/G ([…], time 28 day): 0.8
ALP ([…], time 28 day): 1234.6 IU/L
ALT ([…], time 28 day): 34.4 IU/L
AST ([…], time 28 day): 63.8 IU/L
BUN ([…], time 28 day): 17.4 mg/dL
CRE ([…], time 28 day): 0.3 mg/dL
Ca ([…], time 28 day): 10.6 mg/dL
Cl ([…], time 28 day): 103.8 meq/L
DBIL ([…], time 28 day): 0.014 mg/dL
GLC ([…], time 28 day): 187 mg/dL
IP ([…], time 28 day): 6.4 mg/dL
K ([…], time 28 day): 3.6 meq/L
LDH ([…], time 28 day): 72.8 IU/L
Na ([…], time 28 day): 142.8 meq/L
PL ([…], time 28 day): 164.8 mg/dL
RALB ([…], time 28 day): 2.8 g/dL
TBIL ([…], time 28 day): 0.08 mg/dL
TC ([…], time 28 day): 77.8 mg/dL
TG ([…], time 28 day): 195 mg/dL
TP ([…], time 28 day): 6.4 g/dL
gamma-GTP ([…], time 28 day): 1 IU/L
